# Results as given in ChEMBL document CHEMBL1136802, “Receptor-guided alignment-based comparative 3D-QSAR studies of benzylidene malonitrile tyrphostins as EGFR and HER-2 kinase inhibitors” (J Med Chem, 2003).
# Assays:
# [1] = target: T1, Epidermal growth factor receptor (Homo sapiens, UniProt P00533); assay: Inhibitory activity against epidermal growth factor receptor (EGFR)
# [2] = target: T2, Receptor tyrosine-protein kinase erbB-2 (Homo sapiens, UniProt P04626); assay: Inhibitory activity tested against protein kinase HER-2
# [3] = target: T2, Receptor tyrosine-protein kinase erbB-2; assay: Inhibition of HER-2 ErbB2 receptor
# [4] = target: T1, Epidermal growth factor receptor; assay: Inhibition of epidermal growth factor receptor (EGFR)
# T2 sequence (P04626 whole entry): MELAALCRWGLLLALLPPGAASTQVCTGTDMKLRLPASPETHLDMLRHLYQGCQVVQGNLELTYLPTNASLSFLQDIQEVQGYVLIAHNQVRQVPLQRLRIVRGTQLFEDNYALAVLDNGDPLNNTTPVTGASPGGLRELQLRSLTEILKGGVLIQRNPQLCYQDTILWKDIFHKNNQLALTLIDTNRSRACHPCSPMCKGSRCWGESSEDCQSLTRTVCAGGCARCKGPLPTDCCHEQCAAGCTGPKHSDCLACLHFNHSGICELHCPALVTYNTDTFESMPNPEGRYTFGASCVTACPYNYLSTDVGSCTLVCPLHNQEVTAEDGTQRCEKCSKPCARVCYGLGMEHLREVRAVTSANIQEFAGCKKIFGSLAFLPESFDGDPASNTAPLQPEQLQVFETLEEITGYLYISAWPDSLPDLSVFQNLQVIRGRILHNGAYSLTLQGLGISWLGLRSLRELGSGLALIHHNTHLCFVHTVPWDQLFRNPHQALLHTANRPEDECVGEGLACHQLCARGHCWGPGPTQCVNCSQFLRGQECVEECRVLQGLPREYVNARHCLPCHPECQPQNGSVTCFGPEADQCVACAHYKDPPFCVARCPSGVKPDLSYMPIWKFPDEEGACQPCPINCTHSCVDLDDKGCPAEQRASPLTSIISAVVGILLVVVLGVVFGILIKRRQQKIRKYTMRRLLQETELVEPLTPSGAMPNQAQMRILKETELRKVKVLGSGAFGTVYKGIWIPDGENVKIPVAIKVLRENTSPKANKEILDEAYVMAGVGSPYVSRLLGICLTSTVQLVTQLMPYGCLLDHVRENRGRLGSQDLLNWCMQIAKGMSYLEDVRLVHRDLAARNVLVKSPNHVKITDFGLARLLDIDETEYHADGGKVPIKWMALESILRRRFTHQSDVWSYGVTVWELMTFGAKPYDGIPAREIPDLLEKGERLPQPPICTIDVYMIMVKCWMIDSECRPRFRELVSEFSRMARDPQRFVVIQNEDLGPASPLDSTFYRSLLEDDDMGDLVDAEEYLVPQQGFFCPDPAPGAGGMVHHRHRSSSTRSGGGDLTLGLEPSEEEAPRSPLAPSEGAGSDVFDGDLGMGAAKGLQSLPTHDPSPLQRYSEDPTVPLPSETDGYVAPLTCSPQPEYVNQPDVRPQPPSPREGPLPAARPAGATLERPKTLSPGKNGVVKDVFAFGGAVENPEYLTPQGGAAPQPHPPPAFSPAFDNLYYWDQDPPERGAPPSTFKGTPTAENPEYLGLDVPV
# T1 sequence (P00533 whole entry): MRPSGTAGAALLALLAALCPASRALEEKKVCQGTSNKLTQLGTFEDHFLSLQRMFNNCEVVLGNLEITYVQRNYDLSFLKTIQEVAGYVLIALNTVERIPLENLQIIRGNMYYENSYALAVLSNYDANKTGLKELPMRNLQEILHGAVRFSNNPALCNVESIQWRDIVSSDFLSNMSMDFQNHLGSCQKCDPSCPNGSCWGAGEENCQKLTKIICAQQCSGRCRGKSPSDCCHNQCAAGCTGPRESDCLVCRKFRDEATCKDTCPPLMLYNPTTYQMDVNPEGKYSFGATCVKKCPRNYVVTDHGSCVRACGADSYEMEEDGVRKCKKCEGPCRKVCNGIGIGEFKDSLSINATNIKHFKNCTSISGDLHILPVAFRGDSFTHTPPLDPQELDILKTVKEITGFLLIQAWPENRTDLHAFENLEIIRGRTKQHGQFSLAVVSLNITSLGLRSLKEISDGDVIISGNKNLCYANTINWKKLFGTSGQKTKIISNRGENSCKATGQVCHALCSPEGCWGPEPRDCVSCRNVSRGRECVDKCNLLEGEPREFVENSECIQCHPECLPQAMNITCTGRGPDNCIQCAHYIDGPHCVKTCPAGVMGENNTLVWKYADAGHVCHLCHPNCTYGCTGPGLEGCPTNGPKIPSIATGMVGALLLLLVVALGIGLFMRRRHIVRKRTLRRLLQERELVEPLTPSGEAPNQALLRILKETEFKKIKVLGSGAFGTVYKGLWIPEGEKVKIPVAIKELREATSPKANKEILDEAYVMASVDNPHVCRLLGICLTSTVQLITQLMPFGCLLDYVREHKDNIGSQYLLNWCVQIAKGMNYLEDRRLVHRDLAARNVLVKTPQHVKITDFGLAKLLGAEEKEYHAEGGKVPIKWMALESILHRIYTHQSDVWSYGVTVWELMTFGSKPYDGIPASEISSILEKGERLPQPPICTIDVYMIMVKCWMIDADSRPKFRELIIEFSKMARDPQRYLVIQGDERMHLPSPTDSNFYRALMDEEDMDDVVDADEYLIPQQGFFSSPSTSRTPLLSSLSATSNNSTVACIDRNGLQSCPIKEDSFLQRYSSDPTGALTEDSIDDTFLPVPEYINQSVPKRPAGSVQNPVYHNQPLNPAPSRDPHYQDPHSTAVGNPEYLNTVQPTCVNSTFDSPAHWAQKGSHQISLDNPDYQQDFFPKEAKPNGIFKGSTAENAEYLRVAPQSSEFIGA
compound,measurement,setting,value
COc1cc(/C=C(\C#N)C(N)=O)cc(CSc2nc3cc(Cl)ccc3s2)c1O,IC50,[1],83.2 µM
same,IC50,[2],15.1 µM
COc1cc(/C=C(\C#N)C(N)=O)cc(CSc2ccccc2NC(C)=O)c1O,IC50,[2],3.31 µM
COc1cc(/C=C(\C#N)C(N)=O)cc(SCCCC(=O)O)c1O,IC50,[1],47.9 µM
COc1cc(/C=C(\C#N)C(N)=O)cc(SCCC(=O)O)c1O,IC50,[3],91.2 µM
COc1cc(C=C(C#N)C#N)cc(SCC(=O)O)c1O,IC50,[1],53.7 µM
same,IC50,[2],4.57 µM
Cc1cc(C=C(C#N)C#N)cc(O)c1O,IC50,[2],58.9 µM
COc1cc(/C=C(\C#N)C(N)=O)cc(CSc2ccccc2)c1O,IC50,[2],0.129 µM
COc1cc(/C=C(\C#N)C(N)=O)cc(CSc2nc3ccccc3o2)c1O,IC50,[2],1.51 µM
COc1cc(C=C(C#N)C#N)cc(CSc2ccccc2C(=O)O)c1O,IC50,[2],10 µM
COc1cc(/C=C(\C#N)C(N)=O)cc(CSc2ccccn2)c1O,IC50,[2],0.708 µM
COc1cc(/C=C(\C#N)C(N)=O)cc(CSc2ccccc2C(=O)O)c1O,IC50,[2],0.447 µM
COc1cc(C=C(C#N)C#N)cc(C)c1O,IC50,[2],112 µM
COc1cc(C=C(C#N)C#N)cc(CSc2ccccc2)c1O,IC50,[2],2.51 µM
CC(C)(C)Oc1cc(/C=C(\C#N)C(=N)S)cc(C(C)(C)C)c1O,IC50,[1],501 µM
same,IC50,[2],1 µM
COc1cc(/C=C(/C#N)C(N)=O)cc(CSCc2ccc(Cl)cc2)c1O,IC50,[1],15.8 µM
same,IC50,[2],2 µM
Cc1cc(C)c(NC(=O)/C(C#N)=C/c2ccc(O)c(O)c2)c(C)c1,IC50,[1],19.1 µM
same,IC50,[2],20.9 µM
COc1cc(/C=C(\C#N)C(N)=O)cc(CSc2cccc3ccccc23)c1O,IC50,[1],1.7 µM
same,IC50,[2],4.57 µM
N#C/C(=C\c1ccc(O)c(O)c1)C(=O)NCc1ccc(O)cc1,IC50,[1],3.02 µM
same,IC50,[2],2.88 µM
N#C/C(=C\c1ccc(O)c(O)c1)C(=O)NCCc1ccccc1,IC50,[1],0.617 µM
COc1cc(/C=C(\C#N)C(N)=O)cc(CSCc2ccccc2Cl)c1O,IC50,[2],0.251 µM
COc1cc(/C=C(\C#N)C(N)=O)cc(CSCc2ccccc2)c1O,IC50,[2],10 µM
COc1cc(/C=C(\C#N)C(N)=O)cc(CSc2nc3ccccc3[nH]2)c1O,IC50,[2],6.17 µM
COc1cc(/C=C(\C#N)C(N)=O)cc(CSc2ccc(C)cc2)c1O,IC50,[2],1.66 µM
COc1cc(C=C(C#N)C#N)cc(CS(=O)(=O)c2ccc(C)cc2)c1O,IC50,[2],17.4 µM
CCOc1ccc2sc(SCc3cc(/C=C(\C#N)C(N)=O)cc(OC)c3O)nc2c1,IC50,[4],166 µM
N#C/C(=C\c1cc(O)c(O)c(CSCc2ccccc2)c1)C(N)=O,IC50,[2],1.02 µM
N#C/C(=C\c1ccc(O)c(O)c1)C(=O)NCCCCc1ccccc1,IC50,[2],501 µM
N#C/C(=C\c1ccc(O)c(O)c1)C(=O)c1ccc(F)cc1,IC50,[2],12.9 µM
Cc1cc(C)c(C(=O)/C(C#N)=C/c2ccc(O)c(O)c2)c(C)c1,IC50,[1],19.1 µM
CCOC(=O)C(Cc1ccccc1)NC(=O)/C(C#N)=C/c1ccc(O)c(O)c1 (centres undefined),IC50,[2],331 µM
N#C/C(=C\c1ccc(O)c(O)c1)C(=O)c1ccc(O)c(O)c1,IC50,[2],17 µM
COc1ccc(NC(=O)/C(C#N)=C/c2ccc(O)c(O)c2)c(OC)c1,IC50,[2],166 µM
